Several values for one entry are separate records, joined by “and”; a condition that tells them apart may be missing. Identical values can stand only once.
Key:
Assay in all cases: Two-electrode voltage clamp of mutant KCNQ1 in Xenopus oocytes
Type in all cases: cell-based
KCNQ1 R243A = KCNQ1 R243A (Homo sapiens, UniProt P51787, R243A); conditions: 10 µM CP1, individual oocytes
Source text: (§1) In a previous study, mutation of residues in the predicted PIP2-binding site reduced KCNQ1 currents. CP1 modifies voltage-dependent activation of KCNQ1 channels by shifting the voltage dependence of channel opening, measured as the voltage dependence of the conductance (G–V) relationship, to more negative voltages (Fig. 1c) among other characteristics (see below). We made mutations to the residues around the CP1-interacting pocket as indicated by molecular docking (Fig. 1b), and examined the effects of the mutations on the CP1-induced shift of the G–V relationship. The mutations of the KCNQ1 residues that interact with CP1 in docking simulations reduced the shift of the G–V relationship (Fig. 1c, d), supporting the interaction of these residues with CP1.
(§2) Complementary DNA (cDNA) encoding human KCNQ1 (UniProtKB/Swiss‐Prot under accession no. P51787), KCNQ2 (O43526), KCNQ3 (O43525), KCNE1 (P15382), Kir1.1 (P48048), hERG (Q12809), KV4.2 (Q63881), NaV1.5 (Q14524), NaV β1 (Q07699), CaV1.2 (Q13936), CaV β1a (Q02641), CaV α2/δ1 (P54289), and HCN4 (Q9Y3Q4) were subcloned into oocyte expression vectors, respectively. Site-directed mutations of the KCNQ1 channel were all produced by overlap extension polymerase chain reaction (PCR) with high-fidelity Pfu polymerase (Stratagene, CA). The presence of the desired mutation was verified by sequencing the PCR-amplified regions. All the primer sequences used in this study are available in Supplementary Table 1. The complementary RNA (cRNA) of all these channels and mutations was transcribed in vitro with the T3, T7, or SP6 polymerase mMessage mMachine kit (Invitrogen, Thermo Fisher Scientific, MO).
(§3) The use of Xenopus laevis to obtain oocytes was approved by the Washington University Animal Studies Committee (protocol #20190030). Oocytes were manually dispersed and digested with collagenase (0.5 mg/ml, Sigma-Aldrich, Saint Louis, MO) to remove the follicle cell layer. Stage V or VI oocytes were selected and injected with cRNAs (9.2 ng) of channel or mutations. Especially, to characterize IKs, a mix of cRNAs at a molar ratio 4:1 (KCNQ1:KCNE1) was injected. For KCNQ2/KCNQ3, the molar ratio was 1:1 (KCNQ2:KCNQ3). For sodium channels, a 3:1 molar ratio (β1:NaV1.5) and for calcium channels a weight ratio 1:1:1 (β1:α2/δ1:CaV1.2) was injected, respectively. Injected oocytes were incubated in ND96 solution containing (in mM) 96 NaCl, 2 KCl, 1.8 CaCl2, 1 MgCl2, and 5 HEPES, pH 7.6, supplemented with 2.5 mM Na pyruvate and 1% penicillin–streptomycin, at 18 °C for 3–7 days before recording.
(§4) The whole-oocyte ionic currents were recorded with a GeneClamp 500B amplifier (Axon Instruments, CA) or iTEV90 amplifier (HEKA, Germany) and then sampled at 1 kHz and low-pass-filtered at 2 kHz. The Patchmaster software (HEKA, Germany) was used to acquire data. The Kir1.1 current was recorded with a high K^+ bath solution containing (in mM) 96 KCl, 4 NaCl, 1 CaCl2, 2 MgCl2, and 10 HEPES, pH 7.3–7.4. The HCN4 current was recorded in ND66 solution containing (in mM) 66 NaCl, 32 KCl, 1.8 CaCl2, 1 MgCl2, and 5 HEPES, pH 7.6. All the other potassium channels were recorded in ND96 solution. The currents of CaV1.2 channel were recorded in 40 mM Ba^2+ bath solution containing (in mM) 40 Ba(OH)2, 50 TEA-OH, 2 KOH, and 5 HEPES, adjusted to pH 7.4 with methanesulfonic acid. CP1 (DISODIUM 5-BROMO-2-[9-CHLORO-3-(SULFONATOOXY) NAPHTHO [1,2-B] THIEN-2-YL]-1H-INDOL-3-YL SULFATE, Sigma-Aldrich, MO) and Chromanol 293B (Sigma-Aldrich, MO) were dissolved in bath solutions. All the chemicals were purchased from Sigma-Aldrich. To measure the I–V relations of the Kir1.1 channel, the test voltage was set from −100 to +60 mV for 1 s with 20-mV increments. The test pulses were stepped from a holding potential of 0 mV and then stepped back to 0 mV. The HCN4 currents were recorded by a test pulse between −30 and −140 mV in 10-mV step from a holding potential of −30 mV. […]

KCNQ1 R249A/K354A = KCNQ1 R249A/K354A (Homo sapiens, UniProt P51787, K354A/R249A); conditions: 10 µM CP1, individual oocytes
Source text: as §1, §2, §3, §4

KCNQ1 R249A = KCNQ1 R249A (Homo sapiens, UniProt P51787, R249A)
Source text: as §1, §2, §3, §4

`O=S(=O)([O-])Oc1c(-c2sc3c(ccc4cccc(Cl)c43)c2OS(=O)(=O)[O-])[nH]c2ccc(Br)cc12.[Na+].[Na+]` [CP1, DISODIUM 5-BROMO-2-[9-CHLORO-3-(SULFONATOOXY) NAPHTHO [1,2-B] THIEN-2-YL]-1H-INDOL-3-YL SULFATE] was tested, and the “∆V1/2” value (KCNQ1 R243A) was 24.1172 mV and 49.8519 mV and 42.6967 mV and 36.2884 mV and 45.9483 mV and 47.7413 mV, the “∆V1/2” value (KCNQ1 R249A/K354A) was 32.102 mV and 39.1842 mV and 11.494 mV and 26.1488 mV and 17.9511 mV and the G/Gmax (KCNQ1 R249A; 10 µM CP1, 0 mV) was 0.9092. For the same compound, the G/Gmax (KCNQ1 R249A; 10 µM CP1, 10 mV) was 0.9509, the G/Gmax (KCNQ1 R249A; 10 µM CP1, 20 mV) was 0.9864 and the G/Gmax (KCNQ1 R249A; 10 µM CP1, 30 mV) was 1.0000. The G/Gmax (KCNQ1 R249A; 10 µM CP1, -10 mV) was 0.8439, the G/Gmax (KCNQ1 R249A; 10 µM CP1, -20 mV) was 0.7664 and the G/Gmax (KCNQ1 R249A; 10 µM CP1, -30 mV) was 0.6715. For the same compound, the G/Gmax (KCNQ1 R249A; 10 µM CP1, -40 mV) was 0.5716, the G/Gmax (KCNQ1 R249A; 10 µM CP1, -50 mV) was 0.4548 and the G/Gmax (KCNQ1 R249A; 10 µM CP1, -60 mV) was 0.3517. The G/Gmax (KCNQ1 R249A; 10 µM CP1, -70 mV) was 0.2667, the G/Gmax (KCNQ1 R249A; 10 µM CP1, -80 mV) was 0.1987 and the G/Gmax (KCNQ1 R249A; 10 µM CP1, -90 mV) was 0.1385. The G/Gmax (KCNQ1 R249A; 10 µM CP1, -100 mV) was 0.0990, the G/Gmax (KCNQ1 R249A; 10 µM CP1, -110 mV) was 0.0539 and the G/Gmax (KCNQ1 R249A; 10 µM CP1, -120 mV) was 0.0000. For the same compound, the “∆V1/2” value (KCNQ1 R249A; 10 µM CP1, individual oocytes) was 32.4733 mV and 36.93 mV and 39.3292 mV and 47.5115 mV and 29.4037 mV.

— publication PMC7367283, “A PIP2 substitute mediates voltage sensor-pore coupling in KCNQ activation” (Communications Biology, 2020)
